In PubChem BioAssay (NCI):
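Assay format: 96-well plates, 48-hour exposure. GI50 is the concentration that inhibits growth by half. TGI: total growth inhibition.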

What was measured:
Assay in all cases: DTP human tumour cell line panel, 48 h
786-0 renal = system: 786-0 renal
A498 renal = system: A498 renal
A549 NSCLC = system: A549 NSCLC
ACHN renal = system: ACHN renal
BT-549 breast = system: BT-549 breast
CAKI-1 renal = system: CAKI-1 renal
CCRF-CEM leukemia = system: CCRF-CEM leukemia
COLO 205 colon = system: COLO 205 colon
DU-145 prostate = system: DU-145 prostate
EKVX NSCLC = system: EKVX NSCLC
HCC-2998 colon = system: HCC-2998 colon
HCT-116 colon = system: HCT-116 colon
HCT-15 colon = system: HCT-15 colon
HL-60(TB) leukemia = system: HL-60(TB) leukemia
HOP-62 NSCLC = system: HOP-62 NSCLC
HOP-92 NSCLC = system: HOP-92 NSCLC
HS 578T breast = system: HS 578T breast
HT29 colon = system: HT29 colon
IGROV1 ovarian = system: IGROV1 ovarian
K-562 leukemia = system: K-562 leukemia
KM12 colon = system: KM12 colon
LOX IMVI melanoma = system: LOX IMVI melanoma
M14 melanoma = system: M14 melanoma
MALME-3M melanoma = system: MALME-3M melanoma
MCF7 breast = system: MCF7 breast
MDA-MB-231 breast = system: MDA-MB-231 breast
MDA-MB-435 = system: MDA-MB-435
MOLT-4 leukemia = system: MOLT-4 leukemia
NCI-H226 lung = system: NCI-H226 lung
NCI-H460 lung = system: NCI-H460 lung
NCI-H522 lung = system: NCI-H522 lung
OVCAR-3 ovarian = system: OVCAR-3 ovarian
OVCAR-4 ovarian = system: OVCAR-4 ovarian
OVCAR-8 ovarian = system: OVCAR-8 ovarian
PC-3 prostate = system: PC-3 prostate
RPMI-8226 leukemia = system: RPMI-8226 leukemia
RXF 393 renal = system: RXF 393 renal
SF-268 CNS = system: SF-268 CNS
SF-295 CNS = system: SF-295 CNS
SF-539 CNS = system: SF-539 CNS
SK-MEL-28 melanoma = system: SK-MEL-28 melanoma
SK-MEL-5 melanoma = system: SK-MEL-5 melanoma
SK-OV-3 ovarian = system: SK-OV-3 ovarian
SN12C renal = system: SN12C renal
SNB-19 CNS = system: SNB-19 CNS
SNB-75 CNS = system: SNB-75 CNS
SR leukemia = system: SR leukemia
SW-620 colon = system: SW-620 colon
T-47D breast = system: T-47D breast
TK-10 renal = system: TK-10 renal
U251 CNS = system: U251 CNS
UACC-257 melanoma = system: UACC-257 melanoma
UACC-62 melanoma = system: UACC-62 melanoma
UO-31 renal = system: UO-31 renal

CC(=O)Nc1ccc(S(=O)(=O)NNC(=O)c2cccnc2Nc2ccc(Cl)cc2)cc1 gave a GI50 (786-0 renal) of 48 µM, a TGI (786-0 renal) greater than 100 µM and a GI50 (A498 renal) of 18.4 µM. It also gave a TGI (A498 renal) of 76.1 µM, a GI50 (A549 NSCLC) of 32.4 µM and a TGI (A549 NSCLC) greater than 100 µM. For the same compound, the GI50 (ACHN renal) was 52.2 µM, the TGI (ACHN renal) was greater than 100 µM and the GI50 (BT-549 breast) was 25.2 µM. For the same compound, the TGI (BT-549 breast) was greater than 100 µM, the GI50 (CAKI-1 renal) was 9.18 µM and the TGI (CAKI-1 renal) was greater than 100 µM. The GI50 (CCRF-CEM leukemia) was 21.3 µM, the TGI (CCRF-CEM leukemia) was greater than 100 µM and the GI50 (COLO 205 colon) was 10.3 µM. For the same compound, the TGI (COLO 205 colon) was 57 µM, the GI50 (DU-145 prostate) was 34.3 µM and the TGI (DU-145 prostate) was greater than 100 µM. The GI50 (EKVX NSCLC) was 48.9 µM, the TGI (EKVX NSCLC) was greater than 100 µM and the GI50 (HCC-2998 colon) was 8.38 µM. It also gave a GI50 (HCT-116 colon) of 7.22 µM, a TGI (HCT-116 colon) greater than 100 µM and a GI50 (HCT-15 colon) of 13.7 µM. It also gave a TGI (HCT-15 colon) greater than 100 µM, a GI50 (HL-60(TB) leukemia) of 9.67 µM and a TGI (HL-60(TB) leukemia) greater than 100 µM. The GI50 (HOP-62 NSCLC) was greater than 100 µM, the TGI (HOP-62 NSCLC) was greater than 100 µM and the GI50 (HOP-92 NSCLC) was greater than 100 µM. For the same compound, the TGI (HOP-92 NSCLC) was greater than 100 µM, the GI50 (HS 578T breast) was 23.9 µM and the TGI (HS 578T breast) was greater than 100 µM. It also gave a GI50 (HT29 colon) of 4 µM, a TGI (HT29 colon) greater than 100 µM and a GI50 (IGROV1 ovarian) of 27.3 µM. The TGI (IGROV1 ovarian) was greater than 100 µM, the GI50 (K-562 leukemia) was 8.5 µM and the TGI (K-562 leukemia) was greater than 100 µM. It also gave a GI50 (KM12 colon) of 4.19 µM, a TGI (KM12 colon) greater than 100 µM and a GI50 (LOX IMVI melanoma) of 24 µM. It also gave a TGI (LOX IMVI melanoma) greater than 100 µM, a GI50 (M14 melanoma) of 11.5 µM and a TGI (M14 melanoma) greater than 100 µM. For the same compound, the GI50 (MALME-3M melanoma) was greater than 100 µM, the TGI (MALME-3M melanoma) was greater than 100 µM and the GI50 (MCF7 breast) was 4.34 µM. For the same compound, the TGI (MCF7 breast) was greater than 100 µM, the GI50 (MDA-MB-231 breast) was 41.6 µM and the TGI (MDA-MB-231 breast) was greater than 100 µM. The GI50 (MDA-MB-435) was 3.2 µM, the TGI (MDA-MB-435) was greater than 100 µM and the GI50 (MOLT-4 leukemia) was 49.6 µM. It also gave a TGI (MOLT-4 leukemia) greater than 100 µM, a GI50 (NCI-H226 lung) of 42.3 µM and a TGI (NCI-H226 lung) greater than 100 µM. For the same compound, the GI50 (NCI-H460 lung) was 4.69 µM, the TGI (NCI-H460 lung) was greater than 100 µM and the GI50 (NCI-H522 lung) was 6.44 µM. The TGI (NCI-H522 lung) was greater than 100 µM, the GI50 (OVCAR-3 ovarian) was 3.73 µM and the TGI (OVCAR-3 ovarian) was greater than 100 µM. For the same compound, the GI50 (OVCAR-4 ovarian) was 44.9 µM, the TGI (OVCAR-4 ovarian) was greater than 100 µM and the GI50 (OVCAR-8 ovarian) was 36.2 µM. It also gave a TGI (OVCAR-8 ovarian) greater than 100 µM, a GI50 (PC-3 prostate) of 29.2 µM and a TGI (PC-3 prostate) greater than 100 µM. It also gave a GI50 (RPMI-8226 leukemia) of 28.6 µM, a TGI (RPMI-8226 leukemia) greater than 100 µM and a GI50 (RXF 393 renal) of 37.3 µM. The TGI (RXF 393 renal) was greater than 100 µM, the GI50 (SF-268 CNS) was 22 µM and the TGI (SF-268 CNS) was greater than 100 µM. It also gave a GI50 (SF-295 CNS) of 3.49 µM, a TGI (SF-295 CNS) greater than 100 µM and a GI50 (SF-539 CNS) of 15.5 µM. For the same compound, the TGI (SF-539 CNS) was 75.5 µM, the GI50 (SK-MEL-28 melanoma) was 23.4 µM and the TGI (SK-MEL-28 melanoma) was greater than 100 µM. The GI50 (SK-MEL-5 melanoma) was 5.68 µM, the TGI (SK-MEL-5 melanoma) was greater than 100 µM and the GI50 (SK-OV-3 ovarian) was 57.5 µM. The TGI (SK-OV-3 ovarian) was greater than 100 µM, the GI50 (SN12C renal) was 59.3 µM and the TGI (SN12C renal) was greater than 100 µM. The GI50 (SNB-19 CNS) was 14.1 µM, the TGI (SNB-19 CNS) was greater than 100 µM and the GI50 (SNB-75 CNS) was 5.54 µM. It also gave a TGI (SNB-75 CNS) greater than 100 µM, a GI50 (SR leukemia) of 6.35 µM and a TGI (SR leukemia) greater than 100 µM. The GI50 (SW-620 colon) was 7.64 µM, the TGI (SW-620 colon) was greater than 100 µM and the GI50 (T-47D breast) was 6.28 µM. The TGI (T-47D breast) was greater than 100 µM, the GI50 (TK-10 renal) was 25.3 µM and the TGI (TK-10 renal) was greater than 100 µM. For the same compound, the GI50 (U251 CNS) was 23.8 µM, the TGI (U251 CNS) was greater than 100 µM and the GI50 (UACC-257 melanoma) was 89.4 µM. The TGI (UACC-257 melanoma) was greater than 100 µM, the GI50 (UACC-62 melanoma) was 8.85 µM and the TGI (UACC-62 melanoma) was greater than 100 µM. The GI50 (UO-31 renal) was 91.5 µM and the TGI (UO-31 renal) was greater than 100 µM.
